Reference: PubChem BioAssay AID720578 (The Scripps Research Institute Molecular Screening Center, 2013)
Where “and” joins values, the source holds several entries; their conditions need not be identical. Identical values can stand only once. Calls of active or inactive are those of the source. How the calls were made is not given here.

molecular target: Crimean-Congo hemorrhagic fever virus L protein viral ovarian tumor (vOTU) protease domain; assay: CCHFV vOTU protease inhibitor potency, dose response, biochemical, fluorescence, Pep-AMC substrate (AID 720578); details: recombinant CCHFV vOTU, Pep-AMC fluorescence cleavage

**Q.** With `CC(C)NC1=C(Cl)C(=O)c2ccccc2C1=O` as the compound, how does the IC50 read?
**A.** inactive

**Q.** For `Cc1cnc(C=NNC(N)=S)c2cccc(N)c12`, which IC50 is on record?
**A.** 2.95 µM

**Q.** How did the IC50 turn out when `CC(C)C[C@H](NC(=O)c1[nH]cnc1C(=O)N[C@@H](C)C(=O)OC(C)(C)C)C(=O)OC(C)(C)C` was run?
**A.** > 115 µM (inactive)

**Q.** How did the IC50 turn out when `O=c1[nH]c(Nc2ccccc2)cc2cc(Br)ccc12` was run?
**A.** 1 µM

**Q.** For `COc1ccc(N2C(=O)[C@@H]3[C@H](C2=O)[C@H]2c4ccccc4C=CN2[C@@H]3C(C)=O)cc1`, which IC50 is on record?
**A.** inactive

**Q.** With `Cc1ccc(S(=O)(=O)/N=C2\C=C(Nc3cccc(C(=O)O)c3)C(=O)c3ccccc32)cc1` as the compound, how does the IC50 read?
**A.** 0.771 µM

**Q.** Which IC50 does the source give for `Cc1ccc(NC2=C/C(=N/S(=O)(=O)c3cccs3)c3ccccc3C2=O)cc1` here?
**A.** 0.405 µM

**Q.** Which IC50 does the source give for `COc1cc(NCCCCCCN)c2ncccc2c1OC` here?
**A.** 3.65 µM

**Q.** How did the IC50 turn out when `COc1cc2c(cc1O)[C@@H]1Cc3ccc(OC)c(O)c3CN1CC2` was run?
**A.** 7.49 µM

**Q.** For `CCCCCCCCCCCCCCCCn1cc[n+](C)c1`, which IC50 is on record?
**A.** inactive

**Q.** For `COc1cc2c(cc1OC)-c1c(OC)c(OC)cc3c1C(C2)N(C)CC3` (centres undefined), which IC50 is on record?
**A.** > 115 µM (inactive)

**Q.** For `CC(=O)N(/N=C1\Sc2ccccc2C1=O)c1cccc(C)c1`, which IC50 is on record?
**A.** inactive

**Q.** Which IC50 does the source give for `O=C1C=C(Nc2ccccc2)c2ccccc2C1=O` here?
**A.** 6.87 µM

**Q.** How did the IC50 turn out when `CNc1ccc2nc3ccccc3[n+](C)c2c1` was run?
**A.** inactive

**Q.** How did the IC50 turn out when `CC(C)=CCC1=C(OCC(=O)O)C(=O)c2ccccc2C1=O` was run?
**A.** 6.79 µM

**Q.** How did the IC50 turn out when `Cc1ccc(Cl)cc1NC1=C/C(=N\S(=O)(=O)c2cccs2)c2ccccc2C1=O` was run?
**A.** 0.787 µM

**Q.** `NS(=O)(=O)c1ccc(NC2=CC(=O)C(=O)c3ccccc32)cc1` was tested. Which IC50 did it give?
**A.** 4.85 µM

**Q.** Which IC50 does the source give for `CN1CCN(C2=C(Cl)C(=O)c3ccccc3C2=O)CC1` here?
**A.** 0.276 µM

**Q.** Which IC50 does the source give for `O=[N+]([O-])c1c(Nc2ccccn2)cc(Cl)c2nonc12` here?
**A.** inactive

**Q.** For `CN(C)c1cccc2c1c(NS(=O)(=O)c1cn(C)cn1)nn2C`, which IC50 is on record?
**A.** inactive

**Q.** `Cc1ccc(S(=O)(=O)/N=C2\C=C(Nc3cccc(C(=O)O)c3)C(=O)c3ccccc32)c(C)c1` was tested. Which IC50 did it give?
**A.** 0.973 µM

**Q.** `O=C1C=C(O)c2[nH]c(=O)ccc2C1=O` was tested. Which IC50 did it give?
**A.** 4.26 µM

**Q.** With `COc1cc(CCNC2=CC(=O)c3ncccc3C2=O)ccc1O` as the compound, how does the IC50 read?
**A.** 5.25 µM

**Q.** How did the IC50 turn out when `COC(=O)c1nc(-c2ccc3c(n2)C(=O)C(N)=C(OC)C3=O)c(N)c(-c2ccc(OC)c(OC)c2O)c1C` was run?
**A.** 0.931 µM

**Q.** With `Cc1cc(C)c(S(=O)(=O)/N=C2\C=C(Nc3ccc(C(=O)O)cc3)C(=O)c3ccccc32)c(C)c1` as the compound, how does the IC50 read?
**A.** 1.72 µM

**Q.** With `NC1=C(Br)C(=O)c2ccccc2C1=O` as the compound, how does the IC50 read?
**A.** 4.48 µM

**Q.** For `COc1ccccc1Nc1cc2cc(Br)ccc2c(=O)[nH]1`, which IC50 is on record?
**A.** 1.05 µM

**Q.** `O=C(COC(=O)c1ccc([N+](=O)[O-])s1)Nc1ccccc1` was tested. Which IC50 did it give?
**A.** inactive

**Q.** How did the IC50 turn out when `CN(C1=C(NC(=O)c2ccccc2)C(=O)c2ccccc2C1=O)C1CCS(=O)(=O)C1` (centres undefined) was run?
**A.** 2.43 µM

**Q.** `CC(=O)NC1=C(N(C)C2CCS(=O)(=O)C2)C(=O)c2ccccc2C1=O` (centres undefined) was tested. Which IC50 did it give?
**A.** 8.88 µM

**Q.** With `NC1=C(Cl)C(=O)c2ccc(S(N)(=O)=O)cc2C1=O` as the compound, how does the IC50 read?
**A.** 0.127 µM

**Q.** Which IC50 does the source give for `COc1cc(Br)c(C(=O)c2nccc3cc(OC)c(OC)cc23)cc1OC` here?
**A.** 0.27 µM

**Q.** How did the IC50 turn out when `CCC(COC)Oc1cc(NCc2ccccc2)c2ncn(C(C)C)c2c1` (centres undefined) was run?
**A.** 5.43 µM

**Q.** Which IC50 does the source give for `CCc1ccc(S(=O)(=O)/N=C2\C=C(Nc3cccc(C(=O)O)c3)C(=O)c3ccccc32)cc1` here?
**A.** 0.833 µM

**Q.** How did the IC50 turn out when `O=c1[nH]c(=S)[nH]c2c1C(c1ccc(Br)cc1)c1c([nH]c(=S)[nH]c1=O)O2` was run?
**A.** inactive

**Q.** `Cc1oc2c(c1C(=O)N1CCOCC1)C(=O)c1ccccc1C2=O` was tested. Which IC50 did it give?
**A.** inactive

**Q.** Which IC50 does the source give for `O=C1C(SCCO)=C(SCCO)C(=O)c2ccccc21` here?
**A.** 2.15 µM

**Q.** `Cn1nc(-c2ccccn2)nc2c(=O)n(C)c(=O)nc1-2` was tested. Which IC50 did it give?
**A.** 0.366 µM

**Q.** How did the IC50 turn out when `CC(C)(C)c1cc[n+](C2=C([O-])c3ccccc3C(=O)/C2=N\S(=O)(=O)c2cccs2)cc1` was run?
**A.** 6.78 µM

**Q.** `O=C(O)CCCNc1cc(N2CCN(C(=O)c3ccco3)CC2)c2noc3c2c1C(=O)c1ccccc1-3` was tested. Which IC50 did it give?
**A.** 5.72 µM

**Q.** With `CC(=O)[C@@H]1[C@@H]2C(=O)N(c3ccc(F)c(Cl)c3)C(=O)[C@@H]2C2c3ccccc3C=CN21` (some centres undefined) as the compound, how does the IC50 read?
**A.** inactive

**Q.** How did the IC50 turn out when `Cc1cc(=O)c2c(o1)C(=O)c1occc1C2=O` was run?
**A.** 6.05 µM

**Q.** `O=C(COC(=O)c1ccc([N+](=O)[O-])s1)Nc1ccc(Cl)cn1` was tested. Which IC50 did it give?
**A.** 8.32 µM

**Q.** `CN1/C(=C\C=C2C(=O)NC(=O)NC2=O)C(C)(C)c2ccccc21` was tested. Which IC50 did it give?
**A.** inactive

**Q.** With `O=C1Cc2ccccc2C(=O)N1Cc1ccccc1` as the compound, how does the IC50 read?
**A.** 1.28 µM

**Q.** How did the IC50 turn out when `O=C1C=C(N2CCOCC2)c2ccccc2C1=O` was run?
**A.** 4.21 µM

**Q.** How did the IC50 turn out when `O=C(O)c1ccc(S(=O)(=O)/N=C2\C=C(Nc3ccccc3F)C(=O)c3ccccc32)cc1` was run?
**A.** 0.397 µM

**Q.** With `O=C1C(=NO)CCc2ccccc21` as the compound, how does the IC50 read?
**A.** 3.36 µM

**Q.** `C=CCN(CC=C)C(=S)Nc1ccc2nsnc2c1` was tested. Which IC50 did it give?
**A.** inactive

**Q.** How did the IC50 turn out when `O=C1C=C(Nc2ccccc2C(=O)O)c2ccccc2C1=O` was run?
**A.** 3.59 µM

**Q.** How did the IC50 turn out when `C[n+]1c2cc(N)ccc2cc2ccc(N)cc21` was run?
**A.** 0.945 µM and 3.14 µM

**Q.** Which IC50 does the source give for `CC[C@H](CO)Oc1cc(NCc2cccc(N)c2)c2ncn(C(C)C)c2c1` here?
**A.** 6.52 µM

**Q.** Which IC50 does the source give for `COc1ccccc1NC(=O)COC(=O)c1ccc([N+](=O)[O-])s1` here?
**A.** 9.94 µM

**Q.** Which IC50 does the source give for `CC(=O)N(C1=C(N)C(=O)c2ccccc2C1=O)c1ccccc1` here?
**A.** 8.38 µM

**Q.** Which IC50 does the source give for `C[n+]1c(-c2ccccc2)c2cc(N)ccc2c2ccc(N)cc21` here?
**A.** 3.68 µM

**Q.** For `O=C(/C=C/c1ccc([N+](=O)[O-])s1)N1CCCCC1`, which IC50 is on record?
**A.** inactive

**Q.** With `COc1ccc2noc3c2c1C(=O)c1ccccc1-3` as the compound, how does the IC50 read?
**A.** 3.08 µM

**Q.** With `Cc1ccc(CNc2ccc(O)cc2)cc1` as the compound, how does the IC50 read?
**A.** inactive

**Q.** Which IC50 does the source give for `O=C1Cc2ccccc2C(=O)N1CCc1ccccc1` here?
**A.** 1.14 µM

**Q.** With `CCOC(=O)c1c(C)[nH]c2c1-c1ccccc1C(=O)C2=O` as the compound, how does the IC50 read?
**A.** 0.323 µM

**Q.** Which IC50 does the source give for `CCCCCCCCN1C(=O)[C@@H](CC(=O)NCCCOCCCC)C[C@@]2(C(=O)OC)C1=C[C@H](C(C)C)O[C@@H]2C1CC1` here?
**A.** inactive

**Q.** Which IC50 does the source give for `C[n+]1c(-c2ccccc2)cc2c(=Cc3ccc([N+](=O)[O-])cc3)c3ccccc3n21` here?
**A.** inactive

**Q.** Which IC50 does the source give for `Clc1ccc(C2=CSC3=Nc4cccc5cccc(c45)N23)cc1` here?
**A.** inactive

**Q.** Which IC50 does the source give for `CC(=O)Nc1ccc(S(=O)(=O)NC2=C(N3CCN(c4ccc(F)cc4)CC3)C(=O)c3ccccc3C2=O)cc1` here?
**A.** inactive

**Q.** For `O=C(NC(=S)Nc1ccccc1N1CCCC1)c1ccccc1Br`, which IC50 is on record?
**A.** inactive

**Q.** For `CC1(C)C=C2C(=NN(c3ccccc3)C(N)=C2C#N)CO1`, which IC50 is on record?
**A.** 1.83 µM

**Q.** For `CC(NC1=CC(=O)c2cccnc2C1=O)C(O)c1ccccc1` (centres undefined), which IC50 is on record?
**A.** 1.94 µM

**Q.** With `O=S(=O)(N=C1C=CC(=NS(=O)(=O)c2ccccc2)c2ccccc21)c1ccccc1` as the compound, how does the IC50 read?
**A.** inactive

**Q.** For `Cc1ccccc1NC1=C/C(=N\S(=O)(=O)c2ccc(C(=O)O)cc2)c2ccccc2C1=O`, which IC50 is on record?
**A.** 0.257 µM

**Q.** With `COc1ccc(S(=O)(=O)/N=C2\C=C(Nc3ccc(O)cc3)C(=O)c3ccccc32)cc1` as the compound, how does the IC50 read?
**A.** 0.375 µM

**Q.** How did the IC50 turn out when `CC[n+]1c(-c2ccccc2)c2cc(N)ccc2c2ccc(N)cc21` was run?
**A.** 1.56 µM

**Q.** `Nc1scc2c(C(=O)N/N=C/c3ccc(Cl)cc3)nn(-c3ccccc3)c(=O)c12` was tested. Which IC50 did it give?
**A.** inactive

**Q.** `C=CCN1C(=O)/C(=C/c2ccc(OC(C)=O)c(OCC)c2[N+](=O)[O-])SC1=S` was tested. Which IC50 did it give?
**A.** 7.63 µM

**Q.** `CN1CCC/C1=C/C=C1\SC(=S)NC1=O` was tested. Which IC50 did it give?
**A.** inactive

**Q.** With `CC(=O)N(C)c1ccc(N=Cc2cc3c(cc2[N+](=O)[O-])OCO3)cc1` as the compound, how does the IC50 read?
**A.** inactive

**Q.** Which IC50 does the source give for `CCCCCCCCCCOC(=O)Cn1c(COc2ccc(Cl)cc2)[n+](C)c2ccccc21` here?
**A.** inactive

**Q.** How did the IC50 turn out when `O=C1NNC(c2ccccc2)=N/C1=C\c1ccccc1Cl` was run?
**A.** inactive

**Q.** `CN(C)CCCNc1cc(O)c2ncccc2c1` was tested. Which IC50 did it give?
**A.** 5.13 µM

**Q.** For `COc1ccc(NC(=S)Nc2ccc3nsnc3c2)cc1`, which IC50 is on record?
**A.** 6.79 µM
